Results published in patent EP0315467A2, “Pentamidine salts useful in the treatment and prophylaxis of pneumocystis carinii pneumonia” (LyphoMed, Inc., priority 1987, dated 1989).
Counter-ions that a name gives are not always drawn.

Legend:
[1] = Solubility in water of pentamidine salts; assay type: physicochemical; settings: for Solubility in H₂O: Table I
[2] = background statement on the prior art; cited from earlier work

Structure (SMILES) | Solubility in H₂O [1] [mg/mL] | other results
N=C(N)c1ccc(OCCCCCOc2ccc(C(=N)N)cc2)cc1 [Pentamidine Acetate] | 17.0 | –
N=C(N)c1ccc(OCCCCCOc2ccc(C(=N)N)cc2)cc1 [Pentamidine Borate] | 6.9 | –
N=C(N)c1ccc(OCCCCCOc2ccc(C(=N)N)cc2)cc1 [Pentamidine Citrate] | 0.6 | –
N=C(N)c1ccc(OCCCCCOc2ccc(C(=N)N)cc2)cc1 [Pentamidine Gluconate] | 114.8 | solubility ([1]; bound stated in the text): > 100 mg/mL
N=C(N)c1ccc(OCCCCCOc2ccc(C(=N)N)cc2)cc1 [Pentamidine Hydrochloride, reference compound] | – | solubility in water (in words) [2]: substantially water insoluble; Solubility in H₂O ([1]; Hydrochloride): 14.5 mg/mL
N=C(N)c1ccc(OCCCCCOc2ccc(C(=N)N)cc2)cc1 [Pentamidine Lactate] | 100.3 | water solubility ([1]; bound stated in the text): greater than 100 mg/mL
N=C(N)c1ccc(OCCCCCOc2ccc(C(=N)N)cc2)cc1 [Pentamidine Nitrate] | 1.8 | –
N=C(N)c1ccc(OCCCCCOc2ccc(C(=N)N)cc2)cc1 [Pentamidine Phosphate] | 16.8 | –
N=C(N)c1ccc(OCCCCCOc2ccc(C(=N)N)cc2)cc1 [Pentamidine Sulfate] | 1.4 | –
N=C(N)c1ccc(OCCCCCOc2ccc(C(=N)N)cc2)cc1 [Pentamidine Tartarate] | 3.4 | –
